Measured values as given in US7112318B2, “Non-invasive diagnostic imaging technology for mitochondria dysfunction using radiolabeled lipophilic salts” (The Johns Hopkins University, priority 2002, dated 2006).

Tests used:
[1] = tested on: myocardium; experiment: F-18-FBnTP uptake kinetics in the myocardium (dog PET); type: in vivo, Mongrel dogs
Experimental: Methods: Mongrel dogs (BW=35 kg) were injected with 3–4 mCi of F-18-FBnTP. Images were acquired on a GE 4096+ scanner (15 slices, 6.5 mm slice thickness). PET scans of increasing duration (15 sec to 20 min) were acquired over a total time of 85 min post-injection. Arterial blood samples (0.5 ml in volume) were collected every few seconds for the first 3 minutes and at gradually increasing intervals (1 to 10 min) for the remaining time of the imaging study. The vascular and myocardial kinetics of F-18-FBnTP was analyzed using the ROI method.

[2] = tested on: prostate carcinoma; experiment: Tumor selectivity in orthotopic model of prostate carcinoma; type: in vivo; conditions: nude mice, normalized to muscle
Experimental: Methods: 2×10^6 cells were injected, under anesthesia, into the prostate epithelial tissue of nude mice. When tumor reached an approximate size of 5 mm, uptake assays were performed as described above. Tumor selectivity of F-18-FBnTP and F-18-FDG was compared (3 mice in each group)

[3] = Biodistribution in mice 60 min after i.v. injection; conditions: 60 min after iv. injection
Experimental: Three to five mice were used for the biodistribution study of each tracer. Nonanesthetized animals were injected i.v. with tracer solution (FBnTP or FPTP, TPMP 25 μCi; MIBI 40 μCi; TPP 2 μCi, all in a volume of 0.2 mL saline) then killed by neck dislocation at 60 min after injection. The organs and tissues of interest were removed and counted by a radioactivity counter along with standards (1:1000) (LKB Wallac, 1282 Compugamma CS).

[4] = tested on: FCA-induced inflammation; experiment: Accumulation in FCA-induced inflammation tissue and healthy muscle; type: in vivo; conditions: rats, 3 days after administration of FCA
Experimental: (§1) 0.1 ml of nitrosomethyl urea (NUM) was introduced i.p in female rats (150 g). When tumor reached an approximate size of 1 to 1.5 cm, FCA was injected (0.15 ml) to the hind limb footpad. Uptake assays were carried out 3 days thereafter. F-18-FBnTP (0.25 mCi) was injected via tail vein. Sixty minutes later tumor, inflamed tissue and healthy muscle tissue of the opposite limb (control) were collected on ice, weighed and counted in a gamma counter together with standards.
The accumulation of the novel F-18-phosphonium cations, F-18-FBnTP and F-18-fluoropropyl triphenyl phosphonium (F-18-FPTP) in comparison with F-18-FDG in FCA-induced inflammation and healthy tissue is presented in Table 2. Induction of inflammation and activity counting were carried out as described above.

[5] = tested on: myocardium; experiment: F-18-FBnTP myocardial accumulation in heart failure (pacing 210 bpm, 4 weeks, PET); type: in vivo, Mongrel dog
Experimental: Pacing of the mongrel dog heart at high rate (210 bpm) for a four weeks is a well-established model of heart failure. The advantage of this model is that the cardiomayopathy solely involve apoptosis without stenosis of coronary artery or related ischemia. Therefore, in this model the affect of apoptosis on FBnTP uptake can be dissected.
Methods: Preparation of dog and data acquisition was performed as described above. Mongrel dog was installed with a pacemaker in the rib case and underwent FBnTP PET scan (presented above). Following the baseline scan, the dog_s heart was paced at a rate of 210 bpm for 4 weeks and a second scan was acquired.
Quantitation of FBnTP in the myocardium was performed using region of interest placed on co-registered myocardial images, whose activity was normalized to the injected dose, before and after pacing. An example for ROI placement is illustrated in FIG. 18.

[6] = tested on: orthotopic NMU mammary tumor; experiment: Tracer uptake in NMU mammary tumor versus healthy gland and FCA inflammation; type: in vivo; conditions: NMU-bearing rats, 60 min after i.v., normalized to muscle
From the text: The carcinogen nitrosomethyl urea (NMU) induces carcinoma tumors solely in the mammary gland of female rats. Therefore, the orthotopic NMU mammary tumor is an excellent model for evaluating tracer tumor selectivity by contrasting radioactivity accumulating in mammary gland infested with carcinoma cells and healthy mammary gland. Freund Complete Adjuvant (FCA) is a well_studied inflammation agent in rats Induction of FCA inflammation in NMU-bearing rats allows for direct quantitation of tracer capability to differentiate carcinoma from inflammation.
as §1

[7] = tested on: Human lung carcinoma H549 cells; experiment: Mitochondria membrane potential (MMP)-dependent cellular uptake with CCCP; type: cell-based; conditions: 30 min
Experimental: The extent of MMP-dependent cellular uptake of F-18-FBnTP was assessed using CCCP, a known protonophore that selectively abolishes the MMP.
Methods: Human lung carcinoma H549 cells ([…]) were incubated with 0.1 μCi/ml F-18-FBnTP for 30 min. Samples of the suspension (1 mL) were transferred to Eppendorf s vials and placed in a 370C bath. Varying concentrations (30, 60, 90, 120 μM) of CCCP were added to the suspension. After 30 min of incubation with CCCP, the Eppendorf vials were centrifuged for 1 min, and activity in pellet and supernatant was immediately counted.

[8] = tested on: human lung carcinoma A549 cells; experiment: Detection of response of lung carcinoma tumor to taxeter in vivo; conditions: A549 tumor in nude mice, 48 hours after i.v. taxeter, 60 min after tracer, normalized to muscle
Experimental: Methods: 2×10^6 human lung carcinoma A549 cells were inoculated s.q. in 12 nude mice. When tumor size reached an approximate size of 5—10 mm, six mice were injected i.v. with taxeter and six mice served as control. Uptake assays were carried out 48 hours thereafter. 25 μCi of F-18-FBnTP were injected i.v., and tumor and muscle tissue was dissected after 60 min.

[9] = Stability of fluorination: total bone uptake after i.v. injection; type: in vivo; conditions: mice, 5 and 30 min p.i., compared to mice injected with F-18 only
Experimental: Methods: Mice were injected via the tail vein with 25 μCi of F-18-PhC; 5 and 30 min p.i., the left or right femur bone was removed, and bone radioactivity together with standard (1:100 of injected dose) were counted in a gamma counter. A parallel group of mice was injected with free fluorides (F-18). Three mice of each group were studied at each time point. Radioactivity is represented as percentage of injected dosed (% ID) and total bone uptake was calculated as activity in femur bone×20.

[10] = Stability in plasma after injection of the agent into mice (column-switch HPLC radiochromatography); type: in vivo
Experimental: Samples of mouse plasma were obtained from heparinized whole bloodcollected 5, 15 and 30 min p.i. of the tracer. To eliminate binding to plasma proteins, the plasma was added to solid urea to give a final concentration of 8M urea. The plasma-urea was loaded into a column switch HPLC system (Hilton 2000), in which the plasma passes through a small capture column (Oasis Sorbent, Waters Corp.), which retains lipophilic solutes, while polar species fail to bind and are detected as they pass through a positron detector. After four minutes, the capture column is free of plasma proteins and polar species. Then, the contents of the capture column was swept onto an analytical column (Prodigy ODS-3, Phenomenex) by 40% acetonitrile, 60% triethylamine acetate buffer pH 4.1 at 1 mL/min, where separation of the parent compound and lipophilic metabolites occurs. The effluent from the analytical column also passes through the positron flow detector. The proportion of each species is determined from the area under each chromatographic peak. Results: Radiochemical purity of the 18F-labeled FBnTP was more than 95%. […] FIG. 1 depicts the chromatogram of plasma collected 30 min p.i., and the parental compound incubated for a similar time period (30 min) in buffered saline. Plasma activity and parental compound peaked at same time (˜6 min).

Q: What does the source list for `[18F]c1ccc(C[P+](c2ccccc2)(c2ccccc2)c2ccccc2)cc1` [Example F-18-FBnTP, F-18-fluorobenzyl triphenyl phosphonium]?
A: accumulation in the myocardium, time to equilibrium ([1]; dog PET, 85 min scan): reached equilibrium within a few minutes; washout from the blood pool ([1]; dog, arterial blood samples): rapid washout; uptake ratio of malignant-to-normal prostate tissue [2]: 2.5; biodistribution, blood [3]: 0.02 ± 0.00 % ID/g; biodistribution, brain [3]: 0.07 ± 0.01 % ID/g; biodistribution, heart [3]: 35.39 ± 5.02 % ID/g; biodistribution, kidney [3]: 4.89 ± 0.88 % ID/g; biodistribution, liver [3]: 3.00 ± 1.12 % ID/g; biodistribution, lung [3]: 7.38 ± 1.55 % ID/g; biodistribution, muscle [3]: 4.31 ± 1.30 % ID/g; biodistribution, spleen [3]: 1.79 ± 0.57 % ID/g; Inf/Control [4]: 0.42 ± 0.40; accumulation, Blood [4]: 0.10 ± 0.01 % ID/g tissue; accumulation, Control (healthy muscle) [4]: 0.76 ± 0.21 % ID/g tissue; accumulation, Inflammation [4]: 0.27 ± 0.22 % ID/g tissue; Ratio P/B ([5]; Slices 36–37, ROI1): 0.62; Ratio P/B ([5]; Slices 36–37, ROI2): 0.91; Ratio P/B ([5]; Slices 36–37, ROI3): 0.85; Ratio P/B ([5]; Slices 46–49, ROI1): 0.56; myocardial uptake, Baseline ([5]; Slices 46–49, ROI1, average activity over 36 to 85 min per slice): *108.62 % of injected dose; Ratio P/B ([5]; Slices 46–49, ROI2): 0.76; Ratio P/B ([5]; Slices 46–49, ROI3): 0.82; decrease in uptake in the inferior wall after pacing ([5]; dog, 4-wks pacing at 210 bpm versus baseline): 40–60%; uptake in tumor relative to healthy gland [6]: 4 times; uptake in tumor relative to inflammation ([6]; FCA inflammation 3 days): 3 times; cellular uptake in the presence of varying concentrations of CCCP ([7]; CCCP 30, 60, 90, 120 μM): dose-dependent decrease; MMP-dependent share of cellular uptake ([7]; CCCP 30-120 μM): 86%; decrease in accumulation in tumor after taxeter, compared to non-treated mice [8]: ~50%; total bone uptake [9]: minimal bone uptake; total bone uptake ([9]; listed as F-18-PhC): marginal bone uptake; stable after intravenous injection in vivo ([10]; mice, plasma radiochromatograms): more than 30 min; single radio-peak in plasma, share of total activity ([10]; mouse plasma after i.v. injection, no other peak observed): 97%
